How the values were obtained:
androgen receptor = target: T1, androgen receptor (Homo sapiens, UniProt P10275); experiment: binding to the androgen receptor relative to R 1881; settings: R 1881=100%
T1 sequence (P10275 1-920): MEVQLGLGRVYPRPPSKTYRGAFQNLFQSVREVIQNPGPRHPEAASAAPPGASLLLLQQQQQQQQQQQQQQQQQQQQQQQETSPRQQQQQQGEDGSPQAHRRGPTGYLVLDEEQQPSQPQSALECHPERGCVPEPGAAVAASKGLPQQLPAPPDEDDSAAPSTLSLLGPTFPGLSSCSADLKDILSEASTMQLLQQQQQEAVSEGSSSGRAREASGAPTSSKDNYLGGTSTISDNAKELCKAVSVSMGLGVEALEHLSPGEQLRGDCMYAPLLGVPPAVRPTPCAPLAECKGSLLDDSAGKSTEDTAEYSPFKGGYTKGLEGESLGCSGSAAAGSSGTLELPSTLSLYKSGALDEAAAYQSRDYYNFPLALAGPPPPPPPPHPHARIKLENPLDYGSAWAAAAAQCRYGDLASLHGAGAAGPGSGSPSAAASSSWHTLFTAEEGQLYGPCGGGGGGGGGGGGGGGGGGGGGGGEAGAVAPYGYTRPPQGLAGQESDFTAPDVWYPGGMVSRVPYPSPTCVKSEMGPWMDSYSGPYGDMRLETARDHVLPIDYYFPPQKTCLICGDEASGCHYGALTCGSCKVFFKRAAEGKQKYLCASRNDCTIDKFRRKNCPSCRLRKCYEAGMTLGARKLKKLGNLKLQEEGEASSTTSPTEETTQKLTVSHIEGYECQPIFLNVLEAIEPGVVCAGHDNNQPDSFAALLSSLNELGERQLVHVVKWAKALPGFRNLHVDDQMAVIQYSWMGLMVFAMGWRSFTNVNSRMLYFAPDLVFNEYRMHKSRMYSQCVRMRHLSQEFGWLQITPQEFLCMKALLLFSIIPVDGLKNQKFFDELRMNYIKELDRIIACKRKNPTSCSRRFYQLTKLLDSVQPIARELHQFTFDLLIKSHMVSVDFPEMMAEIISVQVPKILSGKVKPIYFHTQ

progesterone receptor = target: T2, progesterone receptor (Homo sapiens, UniProt P06401); experiment: binding to the progesterone receptor relative to progesterone; settings: progesterone=100%
T2 sequence (P06401 1-933): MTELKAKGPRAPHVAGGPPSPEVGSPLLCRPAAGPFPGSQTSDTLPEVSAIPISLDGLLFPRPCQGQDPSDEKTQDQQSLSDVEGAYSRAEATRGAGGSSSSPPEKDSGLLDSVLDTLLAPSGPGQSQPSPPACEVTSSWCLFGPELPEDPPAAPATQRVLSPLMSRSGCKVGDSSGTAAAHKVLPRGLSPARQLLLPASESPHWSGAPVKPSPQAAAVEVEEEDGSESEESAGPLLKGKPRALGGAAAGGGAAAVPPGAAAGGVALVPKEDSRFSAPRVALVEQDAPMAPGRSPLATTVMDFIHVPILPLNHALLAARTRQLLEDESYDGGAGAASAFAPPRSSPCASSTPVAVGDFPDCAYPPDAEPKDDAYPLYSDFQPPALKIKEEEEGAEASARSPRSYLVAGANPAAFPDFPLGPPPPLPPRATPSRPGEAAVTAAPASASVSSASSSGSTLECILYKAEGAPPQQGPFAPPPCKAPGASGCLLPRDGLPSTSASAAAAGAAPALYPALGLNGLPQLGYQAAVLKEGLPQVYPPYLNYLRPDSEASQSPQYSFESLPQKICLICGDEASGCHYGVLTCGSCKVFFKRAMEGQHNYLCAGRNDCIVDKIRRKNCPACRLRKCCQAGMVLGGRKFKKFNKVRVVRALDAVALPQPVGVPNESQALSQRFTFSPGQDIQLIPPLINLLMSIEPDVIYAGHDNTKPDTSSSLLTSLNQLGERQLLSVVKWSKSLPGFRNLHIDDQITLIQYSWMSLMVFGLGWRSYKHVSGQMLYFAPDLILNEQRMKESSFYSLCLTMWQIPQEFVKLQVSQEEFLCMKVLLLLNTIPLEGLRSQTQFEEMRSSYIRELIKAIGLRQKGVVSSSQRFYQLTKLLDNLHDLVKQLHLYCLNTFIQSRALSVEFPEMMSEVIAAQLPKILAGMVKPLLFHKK

## C[C@]12CC[C@H]3[C@@H](CCC4=C(Cl)C(=O)CC[C@@H]43)[C@@]13C[C@H]3C[C@@H]2O [4-Chloro-17β-hydroxy-14α,15α-methylene-estr-4-ene-3-one]
Androgen receptor
  binds to the extent of % to the androgen receptor: 98%
Progesterone receptor
  binds to the extent of % to the progesterone receptor: 5.5%

## C[C@]12C=CC3=C4CCC(=O)C=C4CC[C@H]3[C@@]13C[C@H]3C[C@@H]2O [17β-Hydroxy-14α,15α-methylene-estr-4,9,11-triene-3-one]
Androgen receptor
  binds to the extent of % to the androgen receptor: 58%
Progesterone receptor
  binds to the extent of % to the progesterone receptor: 36%
